Test results as given in the NIST ThermoML archive (doi:10.1016/j.jct.2010.09.008).

Assays:
[1] = xn = mol fraction of the nth substance listed; settings: 101.3 kPa, Liquid, Vibrating tube method
[2] = relative permittivity at zero frequency (dimensionless); xn = mol fraction of the nth substance listed; settings: 101.3 kPa, Liquid, AC Method
[3] = 101.33 kPa, Liquid, Vibrating tube method
[4] = relative permittivity at zero frequency (dimensionless); settings: 101.33 kPa, Liquid, AC method

COCCOCCOCCOC [2,5,8,11-tetraoxadodecane] + CCCCCCC
Settings	mass density [kg/m3]	relative permittivity at zero frequency
[1], 288.15 K, x2 = 0.0478	977.7	–
[1], 288.15 K, x2 = 0.1018	963.5	–
[1], 288.15 K, x2 = 0.2008	936.93	–
[1], 288.15 K, x2 = 0.3046	908.26	–
[1], 288.15 K, x2 = 0.4046	879.55	–
[1], 288.15 K, x2 = 0.502	850.68	–
[1], 288.15 K, x2 = 0.5988	821.04	–
[1], 288.15 K, x2 = 0.6937	791	–
[1], 288.15 K, x2 = 0.7981	756.91	–
[1], 288.15 K, x2 = 0.8992	722.88	–
[1], 288.15 K, x2 = 0.9471	706.43	–
[1], 298.15 K, x2 = 0.0478	968.24	–
[1], 298.15 K, x2 = 0.1018	954.08	–
[1], 298.15 K, x2 = 0.2008	927.56	–
[1], 298.15 K, x2 = 0.3046	898.85	–
[1], 298.15 K, x2 = 0.4046	870.31	–
[1], 298.15 K, x2 = 0.502	841.51	–
[1], 298.15 K, x2 = 0.5988	811.96	–
[1], 298.15 K, x2 = 0.6937	782.03	–
[1], 298.15 K, x2 = 0.7981	748.1	–
[1], 298.15 K, x2 = 0.8992	714.23	–
[1], 298.15 K, x2 = 0.9471	697.88	–
[1], 308.15 K, x2 = 0.0478	958.76	–
[1], 308.15 K, x2 = 0.1018	944.65	–
[1], 308.15 K, x2 = 0.2008	918.17	–
[1], 308.15 K, x2 = 0.3046	889.51	–
[1], 308.15 K, x2 = 0.4046	861.04	–
[1], 308.15 K, x2 = 0.502	832.28	–
[1], 308.15 K, x2 = 0.5988	802.84	–
[1], 308.15 K, x2 = 0.6937	773	–
[1], 308.15 K, x2 = 0.7981	739.22	–
[1], 308.15 K, x2 = 0.8992	705.5	–
[1], 308.15 K, x2 = 0.9471	689.25	–
[2], 288.15 K, x2 = 0.0502	–	7.53
[2], 288.15 K, x2 = 0.0996	–	7.18
[2], 288.15 K, x2 = 0.2037	–	6.44
[2], 288.15 K, x2 = 0.3128	–	5.7
[2], 288.15 K, x2 = 0.3994	–	5.13
[2], 288.15 K, x2 = 0.5007	–	4.49
[2], 288.15 K, x2 = 0.6027	–	3.88
[2], 288.15 K, x2 = 0.7014	–	3.32
[2], 288.15 K, x2 = 0.8007	–	2.81
[2], 288.15 K, x2 = 0.8993	–	2.35
[2], 288.15 K, x2 = 0.9502	–	2.14
[2], 298.15 K, x2 = 0.0511	–	7.28
[2], 298.15 K, x2 = 0.0992	–	6.94
[2], 298.15 K, x2 = 0.2012	–	6.26
[2], 298.15 K, x2 = 0.3025	–	5.59
[2], 298.15 K, x2 = 0.4095	–	4.91
[2], 298.15 K, x2 = 0.5014	–	4.36
[2], 298.15 K, x2 = 0.6006	–	3.79
[2], 298.15 K, x2 = 0.6989	–	3.26
[2], 298.15 K, x2 = 0.7898	–	2.81
[2], 298.15 K, x2 = 0.902	–	2.31
[2], 298.15 K, x2 = 0.9501	–	2.11
[2], 308.15 K, x2 = 0.0504	–	7.04
[2], 308.15 K, x2 = 0.1008	–	6.71
[2], 308.15 K, x2 = 0.2074	–	6.01
[2], 308.15 K, x2 = 0.3092	–	5.37
[2], 308.15 K, x2 = 0.4042	–	4.8
[2], 308.15 K, x2 = 0.5048	–	4.22
[2], 308.15 K, x2 = 0.6022	–	3.69
[2], 308.15 K, x2 = 0.7071	–	3.15
[2], 308.15 K, x2 = 0.801	–	2.7
[2], 308.15 K, x2 = 0.9016	–	2.28
[2], 308.15 K, x2 = 0.9514	–	2.09

COCCOCCOC [2,5,8-trioxanonane]
Settings	mass density, 288.15 K [kg/m3]	mass density, 298.15 K [kg/m3]	mass density, 308.15 K [kg/m3]	relative permittivity at zero frequency, 288.15 K	relative permittivity at zero frequency, 298.15 K	relative permittivity at zero frequency, 308.15 K
[3]	949.34	939.35	929.36	–	–	–
[4]	–	–	–	7.69	7.4	7.12

COCCOCCOC [2,5,8-trioxanonane] + CCCCCCC
Settings	mass density [kg/m3]	relative permittivity at zero frequency
[1], 288.15 K, x2 = 0.0482	935.46	–
[1], 288.15 K, x2 = 0.0986	921.11	–
[1], 288.15 K, x2 = 0.1969	893.54	–
[1], 288.15 K, x2 = 0.3042	864.14	–
[1], 288.15 K, x2 = 0.4054	836.87	–
[1], 288.15 K, x2 = 0.5047	810.62	–
[1], 288.15 K, x2 = 0.6049	784.64	–
[1], 288.15 K, x2 = 0.6982	760.9	–
[1], 288.15 K, x2 = 0.788	738.48	–
[1], 288.15 K, x2 = 0.8899	713.78	–
[1], 288.15 K, x2 = 0.9452	700.73	–
[1], 298.15 K, x2 = 0.0484	925.56	–
[1], 298.15 K, x2 = 0.1001	910.8	–
[1], 298.15 K, x2 = 0.1957	884.11	–
[1], 298.15 K, x2 = 0.2887	858.66	–
[1], 298.15 K, x2 = 0.4049	827.49	–
[1], 298.15 K, x2 = 0.4975	803.13	–
[1], 298.15 K, x2 = 0.5939	778.25	–
[1], 298.15 K, x2 = 0.6925	753.3	–
[1], 298.15 K, x2 = 0.7931	728.38	–
[1], 298.15 K, x2 = 0.8988	703	–
[1], 298.15 K, x2 = 0.9481	691.49	–
[1], 308.15 K, x2 = 0.0482	915.56	–
[1], 308.15 K, x2 = 0.098	901.53	–
[1], 308.15 K, x2 = 0.1961	874.29	–
[1], 308.15 K, x2 = 0.3036	845.06	–
[1], 308.15 K, x2 = 0.3981	819.81	–
[1], 308.15 K, x2 = 0.4994	793.28	–
[1], 308.15 K, x2 = 0.599	767.73	–
[1], 308.15 K, x2 = 0.6963	743.26	–
[1], 308.15 K, x2 = 0.7844	721.56	–
[1], 308.15 K, x2 = 0.8841	697.7	–
[1], 308.15 K, x2 = 0.9372	685.34	–
[1], 308.15 K, x2 = 0.9738	676.94	–
[2], 288.15 K, x2 = 0.0492	–	7.25
[2], 288.15 K, x2 = 0.0982	–	6.84
[2], 288.15 K, x2 = 0.1991	–	6.04
[2], 288.15 K, x2 = 0.3006	–	5.3
[2], 288.15 K, x2 = 0.398	–	4.65
[2], 288.15 K, x2 = 0.4977	–	4.05
[2], 288.15 K, x2 = 0.5854	–	3.58
[2], 288.15 K, x2 = 0.7026	–	3.02
[2], 288.15 K, x2 = 0.801	–	2.61
[2], 288.15 K, x2 = 0.8927	–	2.28
[2], 288.15 K, x2 = 0.9408	–	2.12
[2], 298.15 K, x2 = 0.0494	–	6.98
[2], 298.15 K, x2 = 0.0988	–	6.59
[2], 298.15 K, x2 = 0.1956	–	5.85
[2], 298.15 K, x2 = 0.303	–	5.11
[2], 298.15 K, x2 = 0.3959	–	4.52
[2], 298.15 K, x2 = 0.4948	–	3.96
[2], 298.15 K, x2 = 0.6028	–	3.4
[2], 298.15 K, x2 = 0.7018	–	2.95
[2], 298.15 K, x2 = 0.7937	–	2.59
[2], 298.15 K, x2 = 0.891	–	2.25
[2], 298.15 K, x2 = 0.9419	–	2.09
[2], 308.15 K, x2 = 0.0494	–	6.73
[2], 308.15 K, x2 = 0.0981	–	6.35
[2], 308.15 K, x2 = 0.1993	–	5.62
[2], 308.15 K, x2 = 0.3025	–	4.94
[2], 308.15 K, x2 = 0.3951	–	4.39
[2], 308.15 K, x2 = 0.4936	–	3.86
[2], 308.15 K, x2 = 0.5951	–	3.36
[2], 308.15 K, x2 = 0.7021	–	2.89
[2], 308.15 K, x2 = 0.7993	–	2.53
[2], 308.15 K, x2 = 0.8953	–	2.21
[2], 308.15 K, x2 = 0.9472	–	2.06

CCCCCCC [heptane]
Settings	mass density, 288.15 K [kg/m3]	mass density, 298.15 K [kg/m3]	mass density, 308.15 K [kg/m3]	relative permittivity at zero frequency, 288.15 K	relative permittivity at zero frequency, 298.15 K	relative permittivity at zero frequency, 308.15 K
[3]	688.03	679.58	671.03	–	–	–
[4]	–	–	–	1.94	1.93	1.92
